Results published in patent US20040023991A1, “Use of pyrazolo[4,3-d]pyrimidines” (priority 2000, published 2004).

SMILES: CCCc1nn(C)c2c(NCc3ccc(OC)c(Cl)c3)nc(CCC(=O)O)nc12 [Example 2, 3-[7-(3-chloro-4-methoxybenzylamino)-1-methyl-3-propyl-1H-pyrazolo[4,3-d]pyrimidin-5-yl]propionic acid]
- melting point: 178 °C
